Source: ChEMBL document CHEMBL5096169, “Recent progress in agents targeting polo-like kinases: Promising therapeutic strategies” (Eur J Med Chem, 2021)
Several values for one entry are separate records, joined by “and”; a condition that tells them apart may be missing. Identical values can stand only once.

What was measured:
MOLM-13 = test: Antiproliferative activity against human MOLM-13 cells assessed as inhibition of cell proliferation incubated for 24 hrs by CCK-8 assay; format: functional, cell-based; conditions: MOLM-13, 24 h
KG-1 = test: Antiproliferative activity against human KG-1 cells assessed as inhibition of cell proliferation incubated for 24 hrs by CCK-8 assay; format: functional, cell-based; conditions: KG-1, 24 h
[1] = biological target: T1, Serine/threonine-protein kinase PLK1 (Homo sapiens, UniProt P53350); test: Binding affinity to human PLK1-PBD (326 to 603 residues) expressed in Escherichia coli BL21(DE3) rosetta cells by microscale thermophoresis analysis
[2] = biological target: T1, Serine/threonine-protein kinase PLK1; test: Inhibition of human PLK1-PBD (326 to 603 residues) expressed in Escherichia coli BL21(DE3) rosetta cells using 5-carboxyfluorescein-GPMQSpTPLNG-OH as substrate preincubated for 1 hr followed by substrate addition and measured after 1 to 2 hr by fluorescence polarization assay
[3] = biological target: T1, Serine/threonine-protein kinase PLK1; test: Inhibition of PLK1 (unknown origin)
CCRF-CEM = test: Cytotoxicity against human CCRF-CEM cells assessed as reduction in cell viability incubated for 72 hrs by resazurin microplate assay; format: functional, cell-based
ADR5000 cell line = test: Cytotoxicity against human CEM/ADR5000 cells assessed as reduction in cell viability incubated for 72 hrs by resazurin microplate assay; format: functional, cell-based; conditions: ADR5000, 72 h
[4] = biological target: T1, Serine/threonine-protein kinase PLK1; test: Inhibition of human PLK1-PBD expressed in Escherichia coli BL21(DE3) rosetta cells using 5-carboxyfluorescein-GPMQSpTPLNG-OH as substrate preincubated for 1 hr followed by substrate addition and measured after 1 hr by fluorescence polarization assay
[5] = biological target: Serine/threonine-protein kinase PLK2 (Homo sapiens, UniProt Q9NYY3); test: Inhibition of recombinant C-terminal 6His-tagged human PLK2-PBD expressed in Escherichia coli BL21(DE3) rosetta cells using 5-carboxyfluorescein-GPMQTSpTPKNG-OH as substrate preincubated for 1 hr followed by substrate addition and measured after 1 hr by fluorescence polarization assay
[6] = biological target: Serine/threonine-protein kinase PLK3 (Homo sapiens, UniProt Q9H4B4); test: Inhibition of recombinant N-terminal MBP-tagged human PLK3-PBD expressed in Escherichia coli BL21(DE3) rosetta cells using 5-carboxyfluorescein-GPLATSpTPKNG-NH2 as substrate preincubated for 1 hr followed by substrate addition and measured after 1 hr by fluorescence polarization assay
[7] = biological target: T1, Serine/threonine-protein kinase PLK1; test: Inhibition of PLK1-PBD (unknown origin) using FITC-GPMQSpTPLNG-OH as substrate measured after 30 mins by Fluorescence polarization assay

T1 sequence (P53350 whole entry, the tested form may be a part): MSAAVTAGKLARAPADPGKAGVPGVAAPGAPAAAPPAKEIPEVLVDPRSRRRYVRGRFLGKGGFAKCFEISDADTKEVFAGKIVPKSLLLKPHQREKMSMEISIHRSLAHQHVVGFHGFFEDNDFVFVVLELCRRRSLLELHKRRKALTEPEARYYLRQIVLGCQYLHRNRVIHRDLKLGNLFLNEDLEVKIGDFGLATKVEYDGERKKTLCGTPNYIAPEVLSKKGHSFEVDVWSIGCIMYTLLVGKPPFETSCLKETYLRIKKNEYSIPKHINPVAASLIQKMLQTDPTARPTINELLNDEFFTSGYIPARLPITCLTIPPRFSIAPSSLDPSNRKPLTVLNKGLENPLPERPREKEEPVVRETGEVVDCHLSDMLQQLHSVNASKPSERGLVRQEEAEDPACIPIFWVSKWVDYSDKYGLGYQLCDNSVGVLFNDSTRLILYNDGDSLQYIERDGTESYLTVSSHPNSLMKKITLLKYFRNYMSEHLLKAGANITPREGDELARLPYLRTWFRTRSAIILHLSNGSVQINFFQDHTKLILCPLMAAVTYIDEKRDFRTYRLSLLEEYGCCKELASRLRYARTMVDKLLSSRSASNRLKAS
Chain of Serine/threonine-protein kinase PLK2 (Q9NYY3 whole entry): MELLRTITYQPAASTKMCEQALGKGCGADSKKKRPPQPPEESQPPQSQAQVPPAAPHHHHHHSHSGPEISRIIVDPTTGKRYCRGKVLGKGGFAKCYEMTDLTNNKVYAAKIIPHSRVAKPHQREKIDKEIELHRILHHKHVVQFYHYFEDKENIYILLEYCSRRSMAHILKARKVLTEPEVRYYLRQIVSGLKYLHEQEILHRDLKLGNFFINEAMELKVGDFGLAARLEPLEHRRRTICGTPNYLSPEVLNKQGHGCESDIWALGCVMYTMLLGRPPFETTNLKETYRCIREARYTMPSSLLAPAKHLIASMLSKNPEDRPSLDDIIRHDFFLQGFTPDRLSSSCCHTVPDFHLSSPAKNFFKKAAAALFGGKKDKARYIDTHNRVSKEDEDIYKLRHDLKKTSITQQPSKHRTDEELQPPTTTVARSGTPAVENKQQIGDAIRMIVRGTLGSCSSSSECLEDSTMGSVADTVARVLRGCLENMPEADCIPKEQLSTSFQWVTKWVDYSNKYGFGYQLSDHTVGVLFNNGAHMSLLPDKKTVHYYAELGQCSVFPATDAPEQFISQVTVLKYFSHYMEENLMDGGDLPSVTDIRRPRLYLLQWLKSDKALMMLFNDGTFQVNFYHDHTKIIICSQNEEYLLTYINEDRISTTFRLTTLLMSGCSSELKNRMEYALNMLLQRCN
Chain of Serine/threonine-protein kinase PLK3 (Q9H4B4 whole entry): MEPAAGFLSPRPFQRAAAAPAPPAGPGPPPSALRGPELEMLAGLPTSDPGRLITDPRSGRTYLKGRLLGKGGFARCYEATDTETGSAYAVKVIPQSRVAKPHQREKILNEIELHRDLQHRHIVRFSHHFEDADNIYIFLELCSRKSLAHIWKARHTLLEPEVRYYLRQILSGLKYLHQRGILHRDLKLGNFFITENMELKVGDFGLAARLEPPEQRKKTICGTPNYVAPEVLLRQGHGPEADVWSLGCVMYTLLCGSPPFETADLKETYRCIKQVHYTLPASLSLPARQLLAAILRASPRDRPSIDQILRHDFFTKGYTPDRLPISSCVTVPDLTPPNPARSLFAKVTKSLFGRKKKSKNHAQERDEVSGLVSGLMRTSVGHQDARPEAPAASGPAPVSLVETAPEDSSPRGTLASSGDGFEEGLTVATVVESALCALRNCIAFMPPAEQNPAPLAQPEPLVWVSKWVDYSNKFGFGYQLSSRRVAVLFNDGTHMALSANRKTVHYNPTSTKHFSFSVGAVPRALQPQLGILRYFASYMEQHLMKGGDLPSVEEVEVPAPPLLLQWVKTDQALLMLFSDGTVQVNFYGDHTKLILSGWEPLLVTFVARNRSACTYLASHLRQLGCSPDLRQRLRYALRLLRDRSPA

SMILES: CC[C@@H]1C(=O)N(C)c2cnc(Nc3ccc(C(=O)NCCOCCOCCOCCNc4cccc5c4C(=O)N(C4CCC(=O)NC4=O)C5=O)cc3OC)nc2N1C1CCCC1 (stereo partly specified)
- IC50 (MOLM-13): 0.00621 µM
- IC50 (KG-1): 0.00694 µM

SMILES: CCOC(=O)c1oc2ccccc2c1CBr
- Kd [1]: 12.8 µM
- IC50 [2]: 16.4 µM

SMILES: COc1cc2ncn(-c3cc(-c4cccc(C(F)(F)F)c4)c(C(N)=O)s3)c2cc1OC
- IC50 [3]: 0.0022 µM

SMILES: C[C@@]12CN(Cc3cccc(C#N)c3)C[C@@](C)(C1)c1c(-c3ccc4ccccc4c3)ccc(=O)n1C2
- IC50 (CCRF-CEM): 11.4 µM
- IC50 (ADR5000 cell line): 13.5 µM
- IC50 [4]: 17.9 µM and 95.5 µM
- IC50 [5]: 95.5 µM
- IC50 [6]: > 100 µM

SMILES: CC(CC(=O)N[C@H](C(=O)N[C@@H](CO)C(=O)N[C@H](C(N)=O)[C@@H](C)OP(=O)(O)O)c1cncs1)NC(=O)c1ccc(CO)cc1 (single isomer, unassigned)
- IC50 [7]: 0.267 µM
